Assay: Hydrogen peroxide retention of extracts after desiccation and rehydration (colorimetric strips)
Format: physicochemical
Conditions: dissolved in 35% hydrogen peroxide, heated at 80° C., rehydrated
Experimental: In order to compare the samples provided above, a test series was prepared in 30 ml tubes containing from 1 g˜10 g of the above extracts of Chinese Gall, Green Tea, Pomegranate and Resveratrol. Each was dissolved in 20 ml of 35% hydrogen peroxide then separate to two aliquots. One part was heated at 80° C. to a dark viscous semi-liquid and allowed to desiccate to a final volume of 5 ml. Each was rehydrated and serially diluted to detection range.

For `Oc1ccc(C=Cc2cc(O)cc(O)c2)cc1` [resveratrol, Resveratrol], the peroxide retention capability was “relatively less ability to form stable perhydrates”.

— patent US8790640B1, “Treating inflammation with a binding system” (LiveLeaf, Inc., priority 2011, dated 2014)
